Measurements taken from US20080027033A1, “Method and Composition for Treatment of Cutaneous Lesions” (Acrux DDS Pty Ltd, priority 2003, published 2008).

Assay: diffusion across skin after transdermal spray administration
Conditions: effect of adding octyl salicylate to the transdermal spray formulation (Example 1); predicted cumulative amount, FIGS. 1 and 2

C[C@]12CC[C@@H]3c4ccc(O)cc4CC[C@H]3[C@@H]1CC[C@@H]2O [estradiol]
amount diffusing across the skin over 24 hours: significant marked increase
